Assay results: US20080261902A1, “Pharmaceutical composition containing polydatin and its application” (Shenzhen Neptunus Pharmaceutical Co., Ltd., priority 2005, published 2008)
Converted amounts (≈) assume the structure as drawn.

Assays:
[1] = tested on: shock caused by bleeding in rats; conditions: versus equal dose of comparators; cited from earlier work
blood platelet = conditions: 6˜100 μmol/L; cited from earlier work
[2] = Solubility of polydatin in alcohol-propanediol-water mixed solvent (Embodiment 15); format: physicochemical; conditions: mixed solvent of 60% alcohol-water and propanediol 10:25(v/v) as printed
[3] = tested on: SD rats, shock related to skin burn; assay: Treatment action for shock related to skin burn (Embodiment A8); format: in vivo; conditions: 2.4 mg/kg venous injection half hour after burning; control 7.0±2.6 hours
[4] = Polydatin solutions prepared by conventional methods (high pH, heating, tween 80); format: physicochemical
Source text: It is widely known by technicians in the field that clinic solutions require pH4.0˜9.0. Obviously, it is hard to prepare polydatin water solution of effective concentration by adjusting pH only. Furthermore, the polydatin has bad stability in solutions of high pH, so the clinic application of the polydatin drug composition preparations of high pH will be further limited. The described document No. 19 adopts heating to dissolve to obtain polydatin drug compositions. According to the experiment, the solutions obtained by heating to dissolve precipitate solute as the temperature reduces, and the polydatin concentrations in the solutions are lower than 0.5 mg/ml after indoor temperature balancing. Obviously, the method is not suitable in preparing officinal medicine preparations. China Patent Application 02134928.2 describes a method of preparing polydatin solutions for injection by adopting adjusting pH and/or adding surfactants (tween 80). […] Furthermore, the prior documents indicate that preparations of administration in vein should be avoided to use as possible because tween surfactants have potential hemolytic and antihypertensive activity. (Zhuangyue etc., applied drug preparation technique, People's medical publishing house 1999:p417)

hyperlipoidemia patient = conditions: 2.2 mg/kg/d; cited from earlier work
[5] = tested on: dogs in hemorrhagic shock; assay: Treatment effect of polydatin drug compositions to dogs in hemorrhagic shock (Embodiment 20); format: in vivo, Beagle dogs; conditions: for survival rate: 168 hours
[6] = Solubility of polydatin in alcohol-water solution and normal saline (Embodiment 13); format: physicochemical; conditions: room temperature; for solubility at 8 h: thermodynamic from solid
Experimental: • 1. Materials: Anhydrous alcohol, analytically pure, Guangzhou No.2 chemical reagent factory; purified water, […] industry city; 0.9% sodium chloride injection, batch number C040514-092, Sichuan kelun pharmaceutical co., ltd. • 2. Method: Preparing alcohol water solutions having concentration of 15%, […] 30%, 40%, 50%, 60%, 70%, 80%, 90%, 95%(v/v) with anhydrous alcohol and purified water. Precisely Measuring water, anhydrous alcohol, 0.9% sodium chloride injection (normal saline) and 20 ml alcohol water solution of each above concentration, adding polydatin of proper amount respectively, treating with ultrasonic for 20 min under 40 □, supersaturating the solution, placing for 8 h under room temperature, filtering with 0.45 μm microporous membrane, wherein the filtrates are saturated solutions of polydatin in alcohol water solutions of different concentration. Adopting HPLC method to determine content of polydatin in the filtrates and calculate solubility of polydatin referring to document 20. • 3. Result: […]

[7] = tested on: SD rats, shock related to blood loss; assay: Treatment action for shock related to blood loss (Embodiment A7)
[8] = Solubility of polydatin in propanediol-water solution (Embodiment 14); format: physicochemical; conditions: for solubility at 8 h: thermodynamic from solid, room temperature
Experimental: Materials: 1,2-propanediol, analytically pure, Guangzhou No. 2 chemical reagent factory; purified water, […] industry city. Method: Preparing propanediol water solutions having concentration of at least 20%(v/v) with propanediol and purified water. Precisely measuring propanediol and 20 ml propanediol water solution of each above concentration, adding polydatin of proper amount respectively, treating with ultrasonic for 20 min under 40° C., supersaturating the solution, placing for 8 h under room temperature, filtering with 0.45 μm microporous membrane, wherein the filtrates are saturated solutions of polydatin in propanediol water solutions of different concentration. Adopting HPLC method to determine content of polydatin in the filtrates and calculate solubility of polydatin referring to document 20.

[9] = Effect of pH to solubility of polydatin (Embodiment 12); format: physicochemical; conditions: for solubility at 8 h: deionized water of adjusted pH, thermodynamic from solid, water, room temperature
Experimental: • 1. Materials: Deionized water, […] industry city; sodium hydroxide, Dongguan dongjiang chemical reagent co., ltd.; hydrochloric acid, Dongguan dongjiang chemical reagent co., ltd. • 2. Method: Regulating deionized water into pH of 5.0˜12.0 with 0.2N sodium hydroxide and 0.2N hydrochloric acid. Measuring precisely 20 ml each of above solutions, adding polydatin of proper amount respectively, treating with ultrasonic for 20 min under 40° C., supersaturating the solution, placing for 8 h under room temperature, filtering with 0.45 μm microporous membrane, wherein the filtrates are saturated solutions of polydatin in water solutions of different pHs. Adopting HPLC method to determine content of polydatin in the filtrates and calculate solubility of polydatin referring to document 20 (Wuye etc., determination content of resveratrol glycoside and tangerine peel glycoside in qing dan capsule with HPLC method, Chinese traditional patent medicine, 1999, 21(5): 226). • 3.

OCC1OC(Oc2cc(O)cc(/C=C/c3ccc(O)cc3)c2)C(O)C(O)C1O [polydatin, 3,4′,5-trihydroxy-trans stilbene-3-β-D-glucoside]
treatment effect to shock caused by bleeding [1]: better than that of using an equal dose of Dopamine and Anisodamine hydrobromide
production of the platelet accumulation and B2 thrombus induced by AA and ADP (blood platelet): capable of inhibiting
stabilization of the solution in cold preservation [2]: good stabilization
average survival period [3]: > 13.3 h
sensitivity of polydatin (solution) [4]: sensitive to temperature and light
polydatin concentration in solutions obtained by heating to dissolve ([4]; after indoor temperature balancing): lower than 0.5 mg/ml
stability in solutions of high pH ([4]; high pH): bad stability
cold preservation of polydatin drug composition ([4]; tween 80 of 0.5%, pH8.5, concentration 4 mg/ml, 4° C.): can not be cold preserved
total cholesterol, LDL/HDL cholesterol ratio, and blood platelet aggregation rate (hyperlipoidemia patient): capable of lowering
survival rate ([5]; 1.8 mg/kg): 3 number/5
survival rate ([5]; 3.0 mg/kg): 4 number/5
survival rate ([5]; 5.0 mg/kg): 4 number/5
average arterial pressure (FIG. 1) ([5]; high dose 5.0 mg/kg, compared with blank control and dopamine groups): can maintain blood pressure of dogs after acute hemorrhage
solubility at 8 h ([6]; alcohol-water solution, aqueous with cosolvent or surfactant or cyclodextrin, alcohol water solution 50%~95% (v/v)): > 20 mg/mL
solubility at 8 h ([6]; alcohol-water solution, aqueous with cosolvent or surfactant or cyclodextrin, content of alcohol 15% (v/v) in water): ~1 mg/mL (≈ 2.56 mM)
solubility at 8 h ([6]; alcohol-water solution, aqueous with cosolvent or surfactant or cyclodextrin, content of alcohol 30% (v/v) in water): ~6 mg/mL (≈ 15.4 mM)
solubility at 8 h ([6]; alcohol-water solution, aqueous with cosolvent or surfactant or cyclodextrin, content of alcohol 40% (v/v) in water): 9.2 mg/mL (≈ 23.6 mM)
solubility at 8 h ([6]; alcohol-water solution, aqueous with cosolvent or surfactant or cyclodextrin, content of alcohol 50% (v/v) in water): ~25 mg/mL (≈ 64 mM)
solubility at 8 h ([6]; alcohol-water solution, aqueous with cosolvent or surfactant or cyclodextrin, content of alcohol 60% (v/v) in water): ~42 mg/mL (≈ 108 mM)
solubility at 8 h ([6]; alcohol-water solution, aqueous with cosolvent or surfactant or cyclodextrin, content of alcohol 70% (v/v) in water): ~80 mg/mL (≈ 205 mM)
solubility at 8 h ([6]; alcohol-water solution, aqueous with cosolvent or surfactant or cyclodextrin, content of alcohol 80% (v/v) in water): 76.8 mg/mL (≈ 197 mM)
solubility at 8 h ([6]; alcohol-water solution, aqueous with cosolvent or surfactant or cyclodextrin, content of alcohol 90% (v/v) in water): ~75 mg/mL (≈ 192 mM)
solubility at 8 h ([6]; alcohol-water solution, aqueous with cosolvent or surfactant or cyclodextrin, content of alcohol 95% (v/v) in water): 30.7 mg/mL (≈ 78.6 mM)
solubility at 8 h ([6]; anhydrous alcohol, organic solvent or mixture, content of alcohol 100% (anhydrous alcohol)): ~20 mg/mL (≈ 51.2 mM)
solubility ([6]; content of alcohol 70% (v/v) in water): 80.9 mg/mL (≈ 207 mM)
solubility at 8 h ([6]; normal saline, saline or isotonic, normal saline (0.9% sodium chloride injection)): < 0.5 mg/mL
solubility at 8 h ([6]; purified water, water, content of alcohol 0% (purified water)): < 0.5 mg/mL
fraction of the treatment group with survival period of 24 hours ([7]; 2.4 mg/kg through femoral vein): 9/10
fraction of the treatment group with survival period of 48 hours ([7]; 2.4 mg/kg through femoral vein): 8/10
fraction of the treatment group with survival period of 72 hours ([7]; 2.4 mg/kg through femoral vein): 6/10
ratio of the survival time of the treatment group and the control group ([7]; 2.4 mg/kg through femoral vein, 1 hour after shock): > 5.5
arterial pressure ([7]; after 30 minutes of medication, 2.4 mg/kg, 5.3+0.2 kPa after shock for 1 hour): 8.6+0.8 kPa
increase of diameter of micro blood vessel ([7]; after medication, 2.4 mg/kg, diameter reduced to 63.3% by shock): 20.3%
solubility at 8 h ([8]; 1,2-propanediol, organic solvent or mixture, content of propanediol 100% (propanediol)): ~60 mg/mL (≈ 154 mM)
stability of the solution ([8]; 20% propanediol water solution, about 3.5 mg/ml): precipitates solute of polydatin after placing for 12 h
solubility at 8 h ([8]; propanediol-water solution, aqueous with cosolvent or surfactant or cyclodextrin, content of propanediol 20% (v/v) in water): ~3.5 mg/mL (≈ 8.97 mM)
solubility at 8 h ([8]; propanediol-water solution, aqueous with cosolvent or surfactant or cyclodextrin, content of propanediol 35% (v/v) in water): 4.9 mg/mL (≈ 12.6 mM)
solubility at 8 h ([8]; propanediol-water solution, aqueous with cosolvent or surfactant or cyclodextrin, content of propanediol 50% (v/v) in water): 24.4 mg/mL (≈ 62.5 mM)
solubility at 8 h ([8]; propanediol-water solution, aqueous with cosolvent or surfactant or cyclodextrin, content of propanediol 65% (v/v) in water): 28.3 mg/mL (≈ 72.5 mM)
solubility at 8 h ([8]; propanediol-water solution, aqueous with cosolvent or surfactant or cyclodextrin, content of propanediol 80% (v/v) in water): 33.6 mg/mL (≈ 86.1 mM)
pH of the solution needed to obtain polydatin water solution ([9]; concentration above 3 mg/ml): above 12
solubility at 8 h ([9]; pH 5, aqueous buffer, pH of solvent 5.0): < 500 µg/mL
solubility at 8 h ([9]; pH 6, aqueous buffer, pH of solvent 6.0): < 500 µg/mL
solubility at 8 h ([9]; pH 7, aqueous buffer, pH of solvent 7.0): < 500 µg/mL
solubility at 8 h ([9]; pH 8, aqueous buffer, pH of solvent 8.0): < 500 µg/mL
solubility at 8 h ([9]; pH 9, aqueous buffer, pH of solvent 9.0): < 500 µg/mL
solubility at 8 h ([9]; pH 10, aqueous buffer, pH of solvent 10.0): < 500 µg/mL
solubility at 8 h ([9]; pH 11, aqueous buffer, pH of solvent 11.0): 700 µg/mL (≈ 1.79 mM)
solubility at 8 h ([9]; pH 12, aqueous buffer, pH of solvent 12.0): ~5000 µg/mL (≈ 12.8 mM)
pH of final solution ([9]; pH of solvent 12): about 10
pH of the final solution ([9]; polydatin water solution of concentration above 3 mg/ml): above 10
